Key:
[1] = test system: human mesenchymal stem cells; assay: Insulin/dexamethasone analysis to identify progenitor and pluripotent cells (morphology); format: cell-based
Protocol: Aliquots of CM-SkM, CF-SkM, NHDF, PAL#3, and PAL#2 cells were thawed and plated individually at 10,000 cells per well in 1% gelatin-coated 24-well plates [Corning, Corning, N.Y.] utilizing PM-B. After 24 hr PM-B was removed and replaced with either control medium, insulin testing medium, or dexamethasone testing medium. Control medium consisted of 98% (v/v) Opti-MEM containing 0.01 mM β-mercapto-ethanol, 1% (v/v) HS3, and 1% antibiotic-antimycotic solution. Insulin testing medium consisted of control medium containing 2 μg/ml insulin [Sigma]. Dexmethasone testing medium was composed of 98% Opti-MEM, 0.01 mM β-mercaptoethanol, 1% serum [HS3, HS9 (horse serum, lot number 90H-0701, Sigma) or FBS (fetal bovine serum, lot no. 3000L, Atlanta Biologicals, Norcross, Ga.)] and 1% antibiotic-antimycotic solution. […]
Discernible changes in phenotypic expression of the cells were assayed morphologically. These morphological tissue cellular types were identical to those previously noted in avian and mouse mesenchymal stem cells incubated with insulin or dexamethasone and extensively analyzed by histochemical and immunochemical procedures (Young et al., 1995; Rogers et al., 1995; Young et al., 1993; Young, 1999; Young et al., 1998). […]
Discernible changes in phenotypic expression of the putative mesenchymal stem cells were determined using morphological criteria. […]

[2] = test system: progenitor stem cells; assay: Proliferation and phenotypic responses to bioactive factors: progenitor cells; format: cell-based
From the text: Having access to mixed populations of progenitor stem cells, progenitor stem cell clones, and pluripotent stem cell clones permits one to address the influence of various bioactive factors (e.g. recombinant growth factors, purified compounds, and novel inductive factors) on the growth characteristics and phenotypic expression of these stem cells.
Cryopreserved cells are thawed and plated in MSC-1 at 5, 10, or 20×10^3 cells per well of gelatinized 24-well plates following the standard protocol. Twenty-four hours after initial plating the medium is changed to testing medium (TM) 1 to 6 (TM-1, TM-2, TM-3, TM-4, TM-5, or TM-6). TM-1 to TM-4 consist of Ultraculture (cat. no. 12-725B, lot. nos. OMO455 [TM-1], 1M1724 [TM-2], 2M0420 [TM-3], or 2M0274 [TM-4], Bio-Whittaker, Walkersville, Md.), medium (EMEM or Opti-MEM 0.01 mM β-mercaptoethanol), and 1% (v/v) antibiotic-antimycotic, pH 7.4. TM-5 consists of 98% (v/v) medium, 1% (v/v) HS, and 1% (v/v) antibiotic-antimycotic, pH 7.4. TM-6 consists of 98.5% (v/v) medium, 0.5% (v/v) HS, and 1% (v/v) antibiotic-antimycotic, pH 7.4. […] Four testing media (TM#'s 1-4), each containing various concentrations of Ultraculture, were used as. […] The four Ultraculture-based testing media were: TM-1=15% (v/v) Ultraculture (Lot no. OMO455): 84% (v/v) medium: 1% (v/v) antibiotics; TM-2=15% (v/v) Ultraculture (Lot no. 1M1724): 84% (v/v) medium: 1% (v/v) antibiotics; TM-3=50% (v/v) Ultraculture (Lot no. 2M0420): 49% (v/v) medium: 1% (v/v) antibiotics; and TM-4=75% (v/v) Ultraculture (Lot no. 2M0274): 24% (v/v) medium: 1% (v/v) antibiotics. Pre-incubation for 24 hr in testing medium alone is used to wash out any potential synergistic components in the MSC-1 medium. Twenty-four hours later the testing medium is changed to one of the following. For controls, TM-1 to TM-6 alone is used. To identify clones of progenitor cells, the medium is replaced with TM-1 to TM-6 containing 2 μg/ml insulin (Sigma), an agent that accelerates the appearance of phenotypic expression markers in progenitor cells (TABLE 12). To identify clones of pluripotent cells, the medium is replaced with TM-1 to TM-6 containing 10^−10 to 10^−6 M dexamethasone (Sigma), a general non-specific lineage-inductive agent (TABLE 13). Control and treated cultures are propagated for an additional 30-45 days with medium changes every other day. Four culture wells are used per concentration per experiment. During the 0-45 day time period the cultures are examined subjectively for changes in morphological characteristics on a daily basis. Alterations in phenotypic expression are correlated with the days of treatment and associated insulin or dexamethasone concentrations. The experiment is then repeated utilizing these parameters to confirm objectively the phenotypic expression markers using established histological, functional/histochemical, ELICA/flow cytometry, and molecular assays (TABLE 13).

Substance: insulin
- effect on phenotypic expression at 80 cell doublings [1]: had no effect on the cells
- Proliferation, Progenitor: number of times the agent increased the DNA content per well versus its respective control [2]: 2 times
- Phenotypic Expression, Progenitor ([2]; presence and approximate distribution of differentiated phenotypes within the culture wells): All+++

Reference: patent US10160948B2, “Pluripotent embryonic-like stem cells, compositions, methods and uses thereof” (ABT HOLDING COMPANY, priority 1999, dated 2018)
